Paper PMC12089418, “Quantifying VMAT2 target occupancy at effective valbenazine doses and comparing to a novel VMAT2 inhibitor: a translational PET study” (Neuropsychopharmacology, 2025)
Read-outs that look alike come from different tables or passages of the source.

Columns and labels:
VMAT2 [1] = biological target: T1, VMAT2 (Homo sapiens, UniProt Q05940); assay: In vitro Ki for affinity to VMAT2, human; type: binding
Text: Ki values for compound affinity to VMAT2 were generated from human platelet homogenates as described in [18].

[2] = Plasma protein binding by equilibrium dialysis, cynomolgus monkey plasma; type: in vitro ADME, cynomolgus monkeys; conditions: both sexes, pooled plasma, read-out: fraction unbound in plasma (fu_p)
VMAT2 [3] = biological target: VMAT2 (Macaca fascicularis, UniProt A0A2K5UVB8); assay: In vitro Ki for affinity to VMAT2, NHP; type: binding
Chain of VMAT2 (Macaca fascicularis, UniProt A0A2K5UVB8) (A0A2K5UVB8 1-517): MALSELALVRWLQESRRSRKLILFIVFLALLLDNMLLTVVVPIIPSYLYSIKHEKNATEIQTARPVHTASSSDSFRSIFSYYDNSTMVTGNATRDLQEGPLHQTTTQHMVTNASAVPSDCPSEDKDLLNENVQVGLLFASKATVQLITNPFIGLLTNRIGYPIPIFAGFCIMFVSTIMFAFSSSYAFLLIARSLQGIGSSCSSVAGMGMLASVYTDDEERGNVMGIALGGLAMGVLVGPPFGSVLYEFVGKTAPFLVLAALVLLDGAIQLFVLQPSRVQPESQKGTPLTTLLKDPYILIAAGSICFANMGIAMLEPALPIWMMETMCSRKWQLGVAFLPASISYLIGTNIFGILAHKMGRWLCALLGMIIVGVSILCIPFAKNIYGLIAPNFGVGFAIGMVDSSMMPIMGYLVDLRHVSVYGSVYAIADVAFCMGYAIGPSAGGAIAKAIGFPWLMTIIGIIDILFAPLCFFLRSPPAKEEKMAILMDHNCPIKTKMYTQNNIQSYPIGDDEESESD

VMAT2 [4] = biological target: T1, VMAT2; assay: Human [18F]AV-133 PET target occupancy; type: in vivo; parameters: from tissue; host or cells: brain of healthy male volunteers (caudate, putamen); conditions: for URF (upregulation factor): upregulation model
Text: The human PET study was approved by the IRB (Approval number: Pro00037529). All participants gave their written informed consent prior to participation in the study. Twelve healthy male subjects were enrolled in cohorts of 2–4 subjects each. Subjects were 29–54 years of age (mean of 43.2 years), and the study had standard inclusion/exclusion criteria, with attention to avoiding drugs which may interfere with the [^18F]AV-133 measurements or with NBI-750142 metabolism.
Subjects fasted during the study and received a small, predefined snack at least 2 h prior to oral dosing of NBI-750142. Consumption of alcohol, caffeine, nicotine or cannabis products, and grapefruit or grapefruit juice was prohibited during the study. One PET scan occurred ~1.5 h following administration of NBI-750142, and a second ~18 h post NBI-750142. These scans are referred to as “T1” and “T2,” respectively, throughout this study (Supplementary Fig. 1). T1 scans were timed to occur at approximately the time to reach maximal plasma concentration, Tmax, and provide the closest comparison to the NHP PET measurements. T2 scans should contribute data points to the lower NBI-750142 concentration portion of the PK-%TO curve and potentially reveal dose-response hysteresis (reviewed in ref. [22]). A total of five cohorts were enrolled in the study in an adaptive design, with two subjects enrolled in each cohort, except for four subjects in cohort 5. NBI-750142 doses in these cohorts ranged from 10 to 200 mg. Blood samples were obtained from each participant immediately before [^18F]AV-133 injection and just before the end of the PET scan in order to quantify plasma concentration of NBI-750142. The Cave derived from these two values was used to compare against %TO.
Prior to the radiotracer injection and PET, a low-dose CT scan was collected for attenuation correction. Subjects were administered a single dose of [^18F]AV-133 intravenously over 3 min using an infusion pump (~3.33 mL per min) through a venous catheter followed by a 10 mL saline flush. Dynamic PET imaging of the brain was acquired over 120 min following radiotracer injection on a Siemens Biograph 6 PET/CT camera with the following frame times: 6 × 30 s, 4 × 1 min, 4 × 2 min, 21 × 5 min (0–120 min). Images were reconstructed with a 168 × 168 × 81 matrix (pixel size of 2.03 mm × 2.03 mm) using an iterative reconstruction algorithm (OSEM 4 iterations, 16 subsets) and a post hoc Gaussian filter FWHM = 3 mm. Standard corrections for random, scatter, system dead time, and attenuation provided by the camera manufacturer were performed. A T1 MRI scan was acquired from eligible subjects as part of the screening visit, to identify and delineate brain anatomical regions of interest for individual PET images. MRI scans were obtained on a Siemens Espree 1.5 Tesla clinical magnet.
Reconstructed PET images were motion and decay corrected, realigned to the subject MRI and subsequently normalized into standard MNI (Montreal Neurological Institute) space using PMOD. Volumes of interest (VOIs) were defined from a template (Hammers, N30R83). Average activity concentration within each VOI was determined and time activity curves (TACs) were generated. TACs were extracted from the following VOIs: caudate and putamen (striatum), and occipital cortex. BPND, the primary outcome measure, was estimated with noninvasive Logan graphical analysis […] 1. The relationship between %TO (averaged between caudate and putamen) and average plasma concentration during the scan was analyzed with an Emax model (Eq. 2) and an upregulation model (Eq. 4), which incorporates an upregulation factor (URF; [24]).4 %TO=Drug−EC50Drug/Drug+EC50(URF−1)/Drug+EC50

VMAT2 [5] = biological target: T1, VMAT2; assay: Estimated human VMAT2 %TO from human PK and NHP PET free EC50; type: in vivo; parameters: from tissue; host or cells: brain of healthy male volunteers (caudate, putamen)
Method: (§1) Valbenazine human plasma exposure metrics in patients were estimated with a population pharmacokinetic (PK) analysis and plasma protein binding (PPB) data. […] These steady-state concentrations, in conjunction with free EC50 from NHP PET for blocking compounds was used to estimate %TO in humans. Plasma concentrations of NBI-750142 following 60 mg BID dose were estimated using plasma concentrations following a single oral dose of 60 mg NBI-750142 using the principle of superposition.

[6] = Plasma protein binding by equilibrium dialysis, human plasma; type: in vitro ADME, humans; conditions: both sexes, pooled plasma, read-out: fraction unbound in plasma (fu_p)
[7] = Human steady-state plasma exposure (population PK / superposition); type: in vivo; conditions: 60 mg NBI-750142 BID
Method: as §1

[8] = 60 mg NBI-750142 BID, NHP PET free EC50 6.7 ng/mL
[9] = estimated from single 60 mg oral dose by superposition

T1 sequence (Q05940 whole entry): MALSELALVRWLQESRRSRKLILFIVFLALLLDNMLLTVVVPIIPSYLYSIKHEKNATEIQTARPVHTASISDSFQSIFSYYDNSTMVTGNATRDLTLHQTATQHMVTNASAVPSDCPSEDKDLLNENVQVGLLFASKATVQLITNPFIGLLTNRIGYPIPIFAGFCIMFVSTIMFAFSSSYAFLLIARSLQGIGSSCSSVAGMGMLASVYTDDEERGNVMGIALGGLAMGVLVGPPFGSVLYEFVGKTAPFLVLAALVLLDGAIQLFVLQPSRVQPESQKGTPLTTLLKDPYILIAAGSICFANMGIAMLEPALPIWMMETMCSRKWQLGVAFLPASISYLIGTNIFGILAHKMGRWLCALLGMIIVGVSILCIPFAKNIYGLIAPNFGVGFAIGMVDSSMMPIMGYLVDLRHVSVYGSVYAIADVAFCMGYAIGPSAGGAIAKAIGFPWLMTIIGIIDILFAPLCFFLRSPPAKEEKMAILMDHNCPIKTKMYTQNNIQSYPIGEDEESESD

Compound: COc1cc2c(cc1OC)[C@H]1CN(C)[C@H](CC(C)(C)C)CN1CC2 [NBI-750142]
- Ki (VMAT2 [1]): 27.7 nM
- fraction unbound [2]: 0.59
- Ki (VMAT2 [3]): 18.3 nM
- EC50:Ki Ratio (VMAT2 [4]; Human, free PET EC50 over in vitro Ki): 1.4
- EC50 (VMAT2 [4]; T1 and T2, occipital cortex reference, read-out: EC50, Emax model (converted)): 105 nM
- URF (upregulation factor) (VMAT2 [4]; T1 and T2, white matter reference): 1.9
- EC50 (VMAT2 [4]; T1 and T2, white matter reference (post hoc), read-out: EC50, Emax model (converted)): 93.2 nM
- EC50 (VMAT2 [4]; T1 and T2, white matter reference (post hoc), read-out: EC50, upregulation model (converted)): 33.1 nM
- EC50 (VMAT2 [4]; T1 and T2 data, occipital cortex reference, read-out: EC50, upregulation model (converted)): 18.9 nM
- URF (upregulation factor) (VMAT2 [4]; T1 and T2 data, occipital cortex reference): 2.8
- EC50 (VMAT2 [4]; T1 scans (~[…] post oral dose), Emax model, occipital cortex reference, read-out: total EC50 (average total plasma concentration vs %TO) (converted)): 75.8 nM
- EC50 (VMAT2 [4]; T1 scans, Emax model, WM-derived BPND (post hoc), read-out: total EC50, white matter reference (converted)): 74.6 nM
- EC50 (VMAT2 [4]; T1 scans, Emax model, total concentration multiplied by fu_p, read-out: free EC50 (free plasma concentration vs %TO) (converted)): 37.9 nM
- VMAT2 occupancy at T2 (VMAT2 [4]; T2 scans ~18 h post NBI-750142, occipital cortex reference): negative occupancy
- average striatal occupancy at T2 (VMAT2 [4]; T2 time points (~18 h post dose), WM-derived values): 0.09%
- VMAT2 %TO estimations (VMAT2 [5]; 60 mg NBI-750142 BID (acceptable doses), Ctrough to Cmax): 36–78%
- VMAT2 %TO at Cavg (VMAT2 [5]; [8]): 67%
- VMAT2 %TO at Cmax (VMAT2 [5]; [8]): 78%
- VMAT2 %TO at Ctrough (VMAT2 [5]; [8]): 36%
- fraction unbound [6]: 0.5
- Cavg, total [7, 9]: 27.7 ng/mL
- Cmax, total [7, 9]: 48.1 ng/mL
- Ctrough, total [7, 9]: 7.6 ng/mL
- Cavg, free ([7]; total x fu_p): 13.9 ng/mL
- Cmax, free ([7]; total x fu_p): 24.1 ng/mL
- Ctrough, free ([7]; total x fu_p): 3.8 ng/mL
